From ChEMBL document CHEMBL5653631, “A Potent and Selective ULK1 Inhibitor Suppresses Autophagy and Sensitizes Cancer Cells to Nutrient Stress” (iScience, 2018)

Experiments:
[1] = molecular target: T1, Serine/threonine-protein kinase DCLK3 (Homo sapiens) (UniProt Q9C098); assay: Inhibition of human recombinant DCAMKL3 at 15 nM in presence of ATP by radiometric assay relative to control
T1 sequence (whole entry): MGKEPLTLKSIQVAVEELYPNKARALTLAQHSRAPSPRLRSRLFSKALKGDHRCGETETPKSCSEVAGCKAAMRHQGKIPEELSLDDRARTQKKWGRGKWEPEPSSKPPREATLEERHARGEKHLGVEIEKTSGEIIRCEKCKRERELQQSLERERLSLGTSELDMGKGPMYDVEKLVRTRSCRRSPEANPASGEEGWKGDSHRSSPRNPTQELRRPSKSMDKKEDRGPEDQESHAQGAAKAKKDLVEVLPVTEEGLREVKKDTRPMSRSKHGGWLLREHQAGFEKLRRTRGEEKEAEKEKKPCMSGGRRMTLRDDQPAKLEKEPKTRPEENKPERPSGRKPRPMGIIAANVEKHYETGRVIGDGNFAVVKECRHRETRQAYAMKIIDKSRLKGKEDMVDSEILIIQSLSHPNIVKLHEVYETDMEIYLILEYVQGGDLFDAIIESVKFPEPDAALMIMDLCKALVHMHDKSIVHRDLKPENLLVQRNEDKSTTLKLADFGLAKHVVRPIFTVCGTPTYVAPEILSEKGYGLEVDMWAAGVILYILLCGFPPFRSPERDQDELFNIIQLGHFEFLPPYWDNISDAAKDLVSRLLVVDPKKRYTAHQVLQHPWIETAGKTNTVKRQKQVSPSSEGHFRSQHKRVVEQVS

[2] = molecular target: T2, Mitogen-activated protein kinase kinase kinase kinase 2 (Homo sapiens) (UniProt Q12851); assay: Inhibition of human recombinant GCK at 15 nM in presence of ATP by radiometric assay relative to control
T2 sequence (whole entry): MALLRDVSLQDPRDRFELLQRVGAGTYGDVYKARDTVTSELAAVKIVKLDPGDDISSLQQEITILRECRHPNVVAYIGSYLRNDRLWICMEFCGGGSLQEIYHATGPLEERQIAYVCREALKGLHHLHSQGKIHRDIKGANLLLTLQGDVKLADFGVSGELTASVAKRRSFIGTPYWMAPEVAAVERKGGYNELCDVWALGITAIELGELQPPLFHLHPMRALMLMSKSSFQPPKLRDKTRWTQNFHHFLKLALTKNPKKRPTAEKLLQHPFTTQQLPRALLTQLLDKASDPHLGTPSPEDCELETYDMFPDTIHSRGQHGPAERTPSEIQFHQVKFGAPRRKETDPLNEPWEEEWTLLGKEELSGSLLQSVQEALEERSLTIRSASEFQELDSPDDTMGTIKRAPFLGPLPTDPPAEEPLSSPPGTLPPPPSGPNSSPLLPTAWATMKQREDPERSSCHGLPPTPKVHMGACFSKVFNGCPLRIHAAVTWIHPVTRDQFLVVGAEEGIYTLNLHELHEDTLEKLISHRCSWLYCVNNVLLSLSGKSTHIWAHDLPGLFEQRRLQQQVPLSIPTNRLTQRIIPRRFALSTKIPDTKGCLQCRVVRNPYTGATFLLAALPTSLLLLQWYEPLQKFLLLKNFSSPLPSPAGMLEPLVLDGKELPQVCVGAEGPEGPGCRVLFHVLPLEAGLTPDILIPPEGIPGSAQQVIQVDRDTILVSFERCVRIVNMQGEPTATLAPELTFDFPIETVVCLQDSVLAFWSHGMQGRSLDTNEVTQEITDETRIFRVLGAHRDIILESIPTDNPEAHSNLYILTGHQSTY

[3] = molecular target: T3, Serine/threonine-protein kinase tousled-like 1 (Homo sapiens) (UniProt Q9UKI8); assay: Inhibition of human recombinant TLK1 at 40 nM in presence of ATP by radiometric assay relative to control
T3 sequence (whole entry): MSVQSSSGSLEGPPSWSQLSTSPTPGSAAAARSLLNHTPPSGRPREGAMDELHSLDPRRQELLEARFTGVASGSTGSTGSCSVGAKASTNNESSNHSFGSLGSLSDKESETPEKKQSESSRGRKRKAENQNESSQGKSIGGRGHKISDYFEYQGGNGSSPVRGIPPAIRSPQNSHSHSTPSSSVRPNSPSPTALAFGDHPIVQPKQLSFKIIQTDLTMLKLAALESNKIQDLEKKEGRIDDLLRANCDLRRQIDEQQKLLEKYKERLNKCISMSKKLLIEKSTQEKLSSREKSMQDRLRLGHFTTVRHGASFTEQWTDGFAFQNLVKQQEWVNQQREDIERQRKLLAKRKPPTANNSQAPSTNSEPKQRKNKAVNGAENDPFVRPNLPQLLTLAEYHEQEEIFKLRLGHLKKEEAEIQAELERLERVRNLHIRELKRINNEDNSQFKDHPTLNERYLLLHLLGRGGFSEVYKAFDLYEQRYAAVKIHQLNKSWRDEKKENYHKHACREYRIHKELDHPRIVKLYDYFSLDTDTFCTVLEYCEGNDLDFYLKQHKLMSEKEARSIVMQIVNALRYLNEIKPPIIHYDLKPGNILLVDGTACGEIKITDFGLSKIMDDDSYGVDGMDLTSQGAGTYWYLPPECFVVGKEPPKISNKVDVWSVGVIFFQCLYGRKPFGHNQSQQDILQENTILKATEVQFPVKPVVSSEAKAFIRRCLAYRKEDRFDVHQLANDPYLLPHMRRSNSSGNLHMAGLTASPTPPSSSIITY

[4] = molecular target: T4, Serine/threonine-protein kinase BRSK2 (Homo sapiens) (UniProt Q8IWQ3); assay: Inhibition of human recombinant BRSK2 at 40 nM related to control ULK1
T4 sequence (whole entry): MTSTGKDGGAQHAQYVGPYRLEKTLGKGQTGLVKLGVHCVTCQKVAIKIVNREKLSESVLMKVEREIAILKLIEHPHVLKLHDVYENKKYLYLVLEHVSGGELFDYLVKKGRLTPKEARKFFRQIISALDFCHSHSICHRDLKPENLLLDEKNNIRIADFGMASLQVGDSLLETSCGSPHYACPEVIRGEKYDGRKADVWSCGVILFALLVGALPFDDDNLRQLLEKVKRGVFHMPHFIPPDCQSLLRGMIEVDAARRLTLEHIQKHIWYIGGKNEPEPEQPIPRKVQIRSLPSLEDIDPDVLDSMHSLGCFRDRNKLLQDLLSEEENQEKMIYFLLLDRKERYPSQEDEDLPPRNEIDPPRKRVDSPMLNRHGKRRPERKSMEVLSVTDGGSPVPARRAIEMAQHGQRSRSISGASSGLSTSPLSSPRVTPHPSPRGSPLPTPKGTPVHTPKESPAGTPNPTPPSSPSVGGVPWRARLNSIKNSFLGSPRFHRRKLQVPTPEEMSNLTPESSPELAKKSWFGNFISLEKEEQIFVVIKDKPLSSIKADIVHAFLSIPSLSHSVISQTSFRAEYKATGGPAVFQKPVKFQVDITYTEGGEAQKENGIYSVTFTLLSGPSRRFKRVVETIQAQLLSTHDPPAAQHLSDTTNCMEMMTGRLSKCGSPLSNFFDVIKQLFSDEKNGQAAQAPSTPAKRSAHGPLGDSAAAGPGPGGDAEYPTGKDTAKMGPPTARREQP

inhibition [1] | inhibition [2] | inhibition [3] | fold change (FC) [4] | SMILES
35% | 34% | – | – | CC(C)[C@H](NC(=O)c1cc(-c2cnn3cc(-c4ccc(OCCN5CCCCC5)cc4)cnc23)cs1)C(F)(F)F
– | – | 0% | 0 | O=C(N[C@@H](C1CC1)C(F)(F)F)c1cc(-c2cnn3cc(-c4ccc(F)cc4)cnc23)cs1
